In assay [1] the target is Histone-lysine N-methyltransferase SETD2 (Homo sapiens) (UniProt Q9BYW2). Briefly: Inhibition of N-terminal His6-tagged human SETD2 (1347 to 1711 residues) expressed in Escherichia coli Rosseta-2(DE3) cells assessed as residual activity at 50 uM using biotinylated-histone H3 (20 to 50 residues) as substrate in presence of [3H-Me]SAM by scintillation proximity assay relative to control. In general terms: In a scintillation proximity assay essentially only radioactivity close to the scintillant gives light.

Assay [2] addresses Histone-lysine N-methyltransferase SETDB1 (Homo sapiens) (UniProt Q15047). As to the kind of experiment: Inhibition of SETDB1 (unknown origin) using biotin-labeled histone substrate assessed as residual activity at 50 uM in presence of [3H-Me]SAM by scintillation proximity assay relative to control.
The target of assay [3] is Histone-lysine N-methyltransferase 2C (Homo sapiens) (UniProt Q8NEZ4). Briefly: Inhibition of MLL3 (unknown origin) using biotin-labeled histone substrate assessed as residual activity at 50 uM in presence of [3H-Me]SAM by scintillation proximity assay relative to control.
For assay [4], the target named is Histone-lysine N-methyltransferase, H3 lysine-36 specific (Homo sapiens) (UniProt Q96L73). As to the kind of experiment: Inhibition of NSD1 (unknown origin) using biotin-labeled histone substrate assessed as residual activity at 50 uM in presence of [3H-Me]SAM by scintillation proximity assay relative to control.
Assay [5] addresses T1, Histone-lysine N-methyltransferase NSD3 (Homo sapiens) (UniProt Q9BZ95).
T1 sequence (whole entry): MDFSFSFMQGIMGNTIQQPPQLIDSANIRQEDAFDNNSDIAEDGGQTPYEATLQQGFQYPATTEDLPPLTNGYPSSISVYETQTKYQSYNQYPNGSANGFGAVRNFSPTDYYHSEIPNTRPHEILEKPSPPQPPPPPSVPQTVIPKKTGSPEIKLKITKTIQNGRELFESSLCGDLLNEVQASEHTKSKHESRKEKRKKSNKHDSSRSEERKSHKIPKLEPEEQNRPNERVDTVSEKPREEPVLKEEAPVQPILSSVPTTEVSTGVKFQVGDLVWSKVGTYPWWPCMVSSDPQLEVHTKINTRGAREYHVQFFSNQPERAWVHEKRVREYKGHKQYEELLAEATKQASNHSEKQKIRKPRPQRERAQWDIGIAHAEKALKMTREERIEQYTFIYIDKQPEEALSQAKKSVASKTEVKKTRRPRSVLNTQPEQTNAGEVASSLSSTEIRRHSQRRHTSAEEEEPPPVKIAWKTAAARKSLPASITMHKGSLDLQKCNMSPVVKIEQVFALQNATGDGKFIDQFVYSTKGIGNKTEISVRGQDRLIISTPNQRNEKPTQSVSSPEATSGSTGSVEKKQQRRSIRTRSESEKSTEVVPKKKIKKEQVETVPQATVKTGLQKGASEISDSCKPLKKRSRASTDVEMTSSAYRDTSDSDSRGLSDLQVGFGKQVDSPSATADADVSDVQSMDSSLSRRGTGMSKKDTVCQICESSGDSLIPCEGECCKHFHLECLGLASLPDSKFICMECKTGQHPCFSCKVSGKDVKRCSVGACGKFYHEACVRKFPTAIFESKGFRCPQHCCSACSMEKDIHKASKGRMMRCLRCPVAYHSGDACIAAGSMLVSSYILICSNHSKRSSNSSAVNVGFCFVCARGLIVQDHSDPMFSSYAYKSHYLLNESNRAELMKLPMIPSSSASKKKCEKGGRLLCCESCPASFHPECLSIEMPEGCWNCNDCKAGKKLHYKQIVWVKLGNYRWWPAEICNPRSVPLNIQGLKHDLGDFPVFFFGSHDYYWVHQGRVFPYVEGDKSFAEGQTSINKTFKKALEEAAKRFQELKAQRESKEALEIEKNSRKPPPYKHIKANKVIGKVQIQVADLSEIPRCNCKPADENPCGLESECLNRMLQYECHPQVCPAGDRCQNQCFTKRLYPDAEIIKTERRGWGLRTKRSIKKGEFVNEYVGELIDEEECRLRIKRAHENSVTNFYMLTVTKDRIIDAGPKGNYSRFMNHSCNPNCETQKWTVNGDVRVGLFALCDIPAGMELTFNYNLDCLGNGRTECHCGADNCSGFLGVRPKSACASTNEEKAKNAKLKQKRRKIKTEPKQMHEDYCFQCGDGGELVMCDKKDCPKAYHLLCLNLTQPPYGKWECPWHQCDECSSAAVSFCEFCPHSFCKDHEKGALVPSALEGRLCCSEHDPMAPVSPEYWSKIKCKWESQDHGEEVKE
Briefly: Inhibition of NSD3 (unknown origin) using biotin-labeled histone substrate assessed as residual activity at 50 uM in presence of [3H-Me]SAM by scintillation proximity assay relative to control.

The target in assay [6] is Histone-lysine N-methyltransferase, H3 lysine-79 specific (Homo sapiens) (UniProt Q8TEK3). Briefly: Inhibition of DOT1L (unknown origin) using biotin-labeled histone substrate assessed as residual activity at 50 uM in presence of [3H-Me]SAM by scintillation proximity assay relative to control.
Assay [7] deals with Protein N-lysine methyltransferase METTL21A (Homo sapiens) (UniProt Q8WXB1). Briefly: Inhibition of METTL21A (unknown origin) using biotin-labeled histone substrate assessed as residual activity at 50 uM in presence of [3H-Me]SAM by scintillation proximity assay relative to control.
Assay [8] addresses Protein N-lysine methyltransferase METTL21D (Homo sapiens) (UniProt Q9H867). Briefly: Inhibition of METTL21D (unknown origin) using biotin-labeled histone substrate assessed as residual activity at 50 uM in presence of [3H-Me]SAM by scintillation proximity assay relative to control.
Assay [9] has as its target Histone-lysine N-methyltransferase KMT5C (Homo sapiens) (UniProt Q86Y97). Briefly: Inhibition of SUV420H2 (unknown origin) using biotin-labeled histone substrate assessed as residual activity at 50 uM in presence of [3H-Me]SAM by scintillation proximity assay relative to control.
Assay [10] deals with T2, Histone-lysine N-methyltransferase SMYD3 (Homo sapiens) (UniProt Q9H7B4).
T2 sequence (whole entry): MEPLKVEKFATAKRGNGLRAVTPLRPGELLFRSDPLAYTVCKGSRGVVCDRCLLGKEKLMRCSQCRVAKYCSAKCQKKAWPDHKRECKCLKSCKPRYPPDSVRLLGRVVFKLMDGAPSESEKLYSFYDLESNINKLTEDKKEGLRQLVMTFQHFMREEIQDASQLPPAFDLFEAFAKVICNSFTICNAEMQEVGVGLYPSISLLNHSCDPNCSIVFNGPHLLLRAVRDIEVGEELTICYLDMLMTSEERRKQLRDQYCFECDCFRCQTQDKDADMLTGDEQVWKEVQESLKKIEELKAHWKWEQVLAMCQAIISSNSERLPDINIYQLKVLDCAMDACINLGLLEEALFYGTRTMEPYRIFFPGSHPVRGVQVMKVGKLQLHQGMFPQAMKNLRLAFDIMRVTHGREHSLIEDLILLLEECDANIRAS
As to the kind of experiment: Inhibition of SMYD3 (unknown origin) using biotin-labeled histone substrate assessed as residual activity at 50 uM in presence of [3H-Me]SAM by scintillation proximity assay relative to control.

Protein N-lysine methyltransferase METTL21D (Homo sapiens), sequence (Q9H867 whole entry): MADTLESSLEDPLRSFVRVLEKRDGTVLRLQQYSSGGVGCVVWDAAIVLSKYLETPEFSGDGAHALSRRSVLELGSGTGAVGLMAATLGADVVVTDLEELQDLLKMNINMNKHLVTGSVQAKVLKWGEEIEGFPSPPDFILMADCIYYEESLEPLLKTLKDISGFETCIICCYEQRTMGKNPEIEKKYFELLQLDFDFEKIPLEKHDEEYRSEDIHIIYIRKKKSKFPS
Histone-lysine N-methyltransferase, H3 lysine-79 specific (Homo sapiens), sequence (Q8TEK3 whole entry, looked up): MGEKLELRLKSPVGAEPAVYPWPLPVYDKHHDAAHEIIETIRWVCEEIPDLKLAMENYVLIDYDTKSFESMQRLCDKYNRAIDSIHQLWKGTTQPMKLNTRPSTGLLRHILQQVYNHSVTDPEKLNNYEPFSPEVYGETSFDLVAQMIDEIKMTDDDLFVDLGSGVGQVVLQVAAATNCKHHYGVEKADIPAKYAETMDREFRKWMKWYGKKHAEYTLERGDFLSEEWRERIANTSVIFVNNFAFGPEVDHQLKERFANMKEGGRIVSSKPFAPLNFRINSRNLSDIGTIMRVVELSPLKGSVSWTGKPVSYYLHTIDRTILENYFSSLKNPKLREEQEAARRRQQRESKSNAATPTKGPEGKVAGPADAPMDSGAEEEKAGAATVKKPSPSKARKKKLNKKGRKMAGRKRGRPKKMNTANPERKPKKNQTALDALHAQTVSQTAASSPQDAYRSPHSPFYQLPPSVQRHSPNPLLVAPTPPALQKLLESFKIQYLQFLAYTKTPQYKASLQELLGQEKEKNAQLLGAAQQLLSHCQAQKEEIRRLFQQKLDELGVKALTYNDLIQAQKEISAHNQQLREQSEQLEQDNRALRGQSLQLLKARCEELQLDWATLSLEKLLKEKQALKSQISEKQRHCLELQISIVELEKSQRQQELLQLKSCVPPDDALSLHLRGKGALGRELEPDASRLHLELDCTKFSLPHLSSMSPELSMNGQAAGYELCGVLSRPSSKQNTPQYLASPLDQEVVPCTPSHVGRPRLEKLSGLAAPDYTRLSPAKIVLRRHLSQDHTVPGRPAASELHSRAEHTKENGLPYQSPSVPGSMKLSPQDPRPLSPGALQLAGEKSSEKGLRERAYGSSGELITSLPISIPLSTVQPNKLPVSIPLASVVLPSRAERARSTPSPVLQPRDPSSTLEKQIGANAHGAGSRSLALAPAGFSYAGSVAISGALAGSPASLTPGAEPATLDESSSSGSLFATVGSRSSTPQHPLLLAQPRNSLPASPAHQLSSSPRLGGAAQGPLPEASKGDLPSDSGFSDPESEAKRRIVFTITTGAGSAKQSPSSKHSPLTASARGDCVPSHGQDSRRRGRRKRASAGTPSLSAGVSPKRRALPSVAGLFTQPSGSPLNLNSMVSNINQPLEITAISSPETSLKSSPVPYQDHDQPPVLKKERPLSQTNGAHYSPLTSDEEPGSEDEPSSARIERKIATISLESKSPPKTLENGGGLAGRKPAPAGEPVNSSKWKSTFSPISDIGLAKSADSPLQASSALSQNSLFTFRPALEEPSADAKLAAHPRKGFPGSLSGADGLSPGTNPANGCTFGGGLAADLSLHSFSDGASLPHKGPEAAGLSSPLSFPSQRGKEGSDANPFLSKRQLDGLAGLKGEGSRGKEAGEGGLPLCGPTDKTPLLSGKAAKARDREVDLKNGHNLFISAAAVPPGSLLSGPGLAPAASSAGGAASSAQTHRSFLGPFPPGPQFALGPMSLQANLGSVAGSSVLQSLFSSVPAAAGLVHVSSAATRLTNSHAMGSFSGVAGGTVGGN
Protein N-lysine methyltransferase METTL21A (Homo sapiens), sequence (Q8WXB1 whole entry): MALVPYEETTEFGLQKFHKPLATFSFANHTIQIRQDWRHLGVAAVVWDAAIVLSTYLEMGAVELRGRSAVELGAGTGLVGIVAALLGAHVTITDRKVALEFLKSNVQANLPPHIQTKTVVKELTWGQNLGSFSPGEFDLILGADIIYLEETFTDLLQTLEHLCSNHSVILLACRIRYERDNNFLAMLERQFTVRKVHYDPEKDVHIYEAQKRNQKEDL
Histone-lysine N-methyltransferase, H3 lysine-36 specific (Homo sapiens), sequence (Q96L73 whole entry): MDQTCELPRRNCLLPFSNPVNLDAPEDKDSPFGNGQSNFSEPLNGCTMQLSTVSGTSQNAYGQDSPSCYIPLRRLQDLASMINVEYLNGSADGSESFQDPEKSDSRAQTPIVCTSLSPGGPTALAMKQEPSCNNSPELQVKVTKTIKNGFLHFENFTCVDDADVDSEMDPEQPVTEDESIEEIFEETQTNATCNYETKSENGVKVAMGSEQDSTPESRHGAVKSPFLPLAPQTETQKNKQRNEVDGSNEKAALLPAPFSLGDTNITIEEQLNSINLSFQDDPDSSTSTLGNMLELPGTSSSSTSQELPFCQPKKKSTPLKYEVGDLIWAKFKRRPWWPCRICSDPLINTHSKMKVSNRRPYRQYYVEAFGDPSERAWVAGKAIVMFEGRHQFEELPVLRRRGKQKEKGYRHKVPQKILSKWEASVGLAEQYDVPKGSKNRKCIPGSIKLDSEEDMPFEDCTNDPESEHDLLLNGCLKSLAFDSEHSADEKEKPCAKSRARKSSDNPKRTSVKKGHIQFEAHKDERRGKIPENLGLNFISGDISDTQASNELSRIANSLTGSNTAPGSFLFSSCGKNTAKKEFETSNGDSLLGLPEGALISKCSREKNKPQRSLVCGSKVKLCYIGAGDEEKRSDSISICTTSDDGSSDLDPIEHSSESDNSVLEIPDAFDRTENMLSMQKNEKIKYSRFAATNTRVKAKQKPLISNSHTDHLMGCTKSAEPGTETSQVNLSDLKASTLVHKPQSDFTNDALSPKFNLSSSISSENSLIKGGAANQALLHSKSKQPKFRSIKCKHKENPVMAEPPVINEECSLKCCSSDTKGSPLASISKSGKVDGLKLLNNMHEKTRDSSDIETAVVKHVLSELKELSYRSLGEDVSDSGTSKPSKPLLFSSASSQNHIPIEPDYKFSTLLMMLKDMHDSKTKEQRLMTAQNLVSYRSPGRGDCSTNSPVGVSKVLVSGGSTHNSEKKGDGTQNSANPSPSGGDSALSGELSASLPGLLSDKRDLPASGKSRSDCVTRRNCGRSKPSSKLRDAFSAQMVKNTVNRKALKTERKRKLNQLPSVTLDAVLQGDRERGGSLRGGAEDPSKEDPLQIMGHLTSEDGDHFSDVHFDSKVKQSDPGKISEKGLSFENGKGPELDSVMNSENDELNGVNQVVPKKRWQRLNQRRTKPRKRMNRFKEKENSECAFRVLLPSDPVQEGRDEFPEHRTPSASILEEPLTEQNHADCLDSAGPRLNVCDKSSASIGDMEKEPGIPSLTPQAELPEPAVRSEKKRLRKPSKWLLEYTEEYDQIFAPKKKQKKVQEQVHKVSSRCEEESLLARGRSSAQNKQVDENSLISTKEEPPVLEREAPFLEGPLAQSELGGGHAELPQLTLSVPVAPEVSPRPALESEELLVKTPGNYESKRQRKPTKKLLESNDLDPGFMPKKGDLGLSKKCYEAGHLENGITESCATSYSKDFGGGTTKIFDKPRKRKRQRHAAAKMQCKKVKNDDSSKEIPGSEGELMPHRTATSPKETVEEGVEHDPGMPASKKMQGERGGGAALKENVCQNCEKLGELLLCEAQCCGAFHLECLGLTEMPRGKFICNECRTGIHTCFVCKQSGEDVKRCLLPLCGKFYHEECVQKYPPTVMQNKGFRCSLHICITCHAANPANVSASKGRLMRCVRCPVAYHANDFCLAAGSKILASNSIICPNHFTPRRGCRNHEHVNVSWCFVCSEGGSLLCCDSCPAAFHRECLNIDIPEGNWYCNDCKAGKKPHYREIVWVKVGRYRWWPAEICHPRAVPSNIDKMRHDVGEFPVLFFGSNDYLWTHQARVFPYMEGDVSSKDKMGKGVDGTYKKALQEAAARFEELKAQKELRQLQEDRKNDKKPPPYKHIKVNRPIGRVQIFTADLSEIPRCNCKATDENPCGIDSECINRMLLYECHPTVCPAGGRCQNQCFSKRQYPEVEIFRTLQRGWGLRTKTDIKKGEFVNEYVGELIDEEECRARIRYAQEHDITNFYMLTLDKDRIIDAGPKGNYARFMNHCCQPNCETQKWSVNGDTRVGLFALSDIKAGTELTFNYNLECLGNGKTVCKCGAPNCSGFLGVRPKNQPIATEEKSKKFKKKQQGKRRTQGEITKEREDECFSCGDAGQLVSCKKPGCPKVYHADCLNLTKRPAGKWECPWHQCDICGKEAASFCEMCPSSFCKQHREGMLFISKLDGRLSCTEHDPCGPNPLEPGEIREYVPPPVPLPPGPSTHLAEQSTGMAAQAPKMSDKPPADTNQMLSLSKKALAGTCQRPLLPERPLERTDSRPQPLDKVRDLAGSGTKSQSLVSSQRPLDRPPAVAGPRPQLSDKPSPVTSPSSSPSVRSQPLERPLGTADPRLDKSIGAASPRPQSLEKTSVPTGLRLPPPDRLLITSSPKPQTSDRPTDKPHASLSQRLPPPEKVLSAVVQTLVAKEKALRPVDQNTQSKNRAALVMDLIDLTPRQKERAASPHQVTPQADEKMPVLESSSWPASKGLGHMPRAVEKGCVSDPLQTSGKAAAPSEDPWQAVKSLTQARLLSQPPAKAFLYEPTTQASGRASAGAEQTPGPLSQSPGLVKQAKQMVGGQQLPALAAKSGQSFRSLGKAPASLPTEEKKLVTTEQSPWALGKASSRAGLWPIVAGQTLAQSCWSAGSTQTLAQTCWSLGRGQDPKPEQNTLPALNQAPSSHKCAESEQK

As to `O=C(c1cccc(Br)c1)N1C[C@@H]2CCN[C@@H]2C1`, the Activity in assay [1] is 110%; in assay [2], 107%; in assay [3], 95%; in assay [4], 93%; in assay [5], 94%; in [6] it was 94%. Besides, the Activity in assay [7] amounted to 96%; in assay [8], 98%; in [9], 94%; in assay [10] it was 101%.

As to `CN1CCC2(CCCN2C(=O)c2cccc(Br)c2)CC1`, the Activity in assay [1] amounted to 98%; in [2], 94%; in assay [3] it was 97%; in assay [4], 91%; in assay [5] it was 96%; in assay [6] it was 97%. The Activity was found to be 99% in assay [7], 111% in assay [8], 99% in assay [9] and 99% in [10].

For `O=C(c1cccc(Br)c1)N1CC[C@H]2NCC[C@H]2C1`, the Activity in [1] was found to be 107%; in assay [2] it was 100%; in assay [3] it was 103%; in assay [4] it was 95%; in [5], 107%; in assay [6], 99%. The Activity was 99% in assay [7], 103% in assay [8], 99% in [9] and 92% in [10].

As to `CN1CCCC12CCN(C(=O)c1cccc(Br)c1)CC2`, the Activity in [1] stood at 108%; in [2] it was 101%; in [3], 106%; in [4] it was 93%; in [5], 101%; in assay [6], 100%. The Activity in [7] was 98%; in [8], 120%; in assay [9], 103%; in [10], 108%.

Consider `O=C(c1cccc(Br)c1)N1CCCC2(CCCCN2)C1` (stereo not given), for which the Activity in assay [1] amounted to 105%; in assay [2] it was 108%; in [3] it was 101%; in [4], 109%; in [5] it was 111%; in assay [6], 100%. Moreover, the Activity in assay [7] is 97%; in assay [8], 103%; in assay [9] it was 96%; in [10], 99%.

Regarding `C[N+]1(C)CCCCC12CCN(C(=O)c1cccc(Br)c1)CC2`, the Activity in [1] amounted to 102%; in [2] it was 97%; in assay [3] it was 96%; in assay [4], 95%; in [5] it was 99%; in assay [6], 96%. The Activity in assay [7] is 97%; in assay [8], 102%; in assay [9], 98%; in [10] it was 100%.

`CN1CCCC12CCCN(C(=O)c1cccc(Br)c1)C2` (stereo not given): the Activity worked out at 107% in [1]; 98% in assay [2]; 105% in assay [3]; 101% in assay [4]; 95% in assay [5]; 94% in assay [6]. Further, the Activity in assay [7] came to 92%; in [8] it was 99%; in assay [9] it was 83%; in [10], 87%.

Turning to `O=C(c1cccc(Br)c1)N1CCC[C@@H]2CNC[C@@H]21`, the Activity in assay [1] amounted to 102%; in [2], 109%; in assay [3], 108%; in [4] it was 98%; in assay [5] it was 106%; in [6] it was 96%. The Activity in assay [7] was determined as 102%; in [8] it was 106%; in assay [9], 103%; in [10], 98%.

As for `CN1CCCCC12CCN(C(=O)c1cccc(Br)c1)CC2`, the Activity in [1] was found to be 101%; in assay [2], 108%; in assay [3] it was 104%; in assay [4], 96%; in [5] it was 97%; in assay [6], 101%. The Activity in assay [7] was determined as 97%; in assay [8], 99%; in assay [9] it was 94%; in assay [10], 87%.

For the compound `CN1CCCC2(CCCN(C(=O)c3cccc(Br)c3)C2)C1` (stereo not given), the Activity in [1] came out at 99%; in assay [2], 106%; in [3], 96%; in assay [4], 91%; in assay [5], 99%; in assay [6], 96%. Also, the Activity is 100% in assay [7], 99% in [8], 100% in assay [9] and 85% in [10].

In the case of `CN1C[C@H]2CCCN(C(=O)c3cccc(Br)c3)[C@H]2C1`, the Activity was found to be 106% in assay [1]; 101% in [2]; 105% in [3]; 99% in [4]; 92% in [5]; 94% in assay [6]. Further, the Activity in [7] worked out at 93%; in assay [8], 102%; in [9], 100%; in assay [10], 93%.

Turning to `CN1CCC2(CC1)CCN(C(=O)c1cccc(Br)c1)CC2`, the Activity in assay [1] stood at 105%; in assay [2] it was 108%; in assay [3] it was 99%; in assay [4], 96%; in assay [5], 110%; in assay [6], 102%. For the same compound, the Activity in assay [7] stood at 105%; in assay [8], 105%; in assay [9], 105%; in assay [10] it was 98%.

(Values after ChEMBL document CHEMBL4477270, “Design, synthesis, and protein methyltransferase activity of a unique set of constrained amine containing compounds” (Bioorg Med Chem Lett, 2016).)
